Legend:
[1] = test system: endothelial nitric oxide synthase (eNOS)-dependent nitric oxide (NO) production; assay: Example 3: endothelial NO production in ex vivo aorta by EPR spin-trapping; conditions: 0.05 mg/kg b.w./day, vs untreated age-matched mice
Description: For measurements of endothelial nitric oxide synthase (eNOS)-dependent nitric oxide (NO) production, EPR spin-trapping with diethyldithiocarbamic acid sodium salt (DETC) was used ex vivo, as described in Przyborowski K, Proniewski B, Czarny J, Smeda M, Sitek B, Zakrzewska A, et al. Vascular Nitric Oxide-Superoxide Balance and Thrombus Formation after Acute Exercise. Med Sci Sport Exerc 2018:1. doi:10.1249/MSS.0000000000001589, with minor modifications. Isolated aorta cleared from surrounding tissue was opened longitudinally and preincubated with 10 μM L-NIL (N6-(1-Iminoethyl)-lysine, hydrochloride) in Krebs-HEPES buffer for 30 minutes at 37° C. in a well of a 48-well plate. Next, 250 μL of Fe(DETC)2 colloid was added and aorta was stimulated with calcium ionophore A23187 (the final concentration was 1 μM) and subsequently, incubated for 90 minutes at 37° C. Finally, aorta was weighed and frozen in liquid nitrogen (suspended in fresh buffer) into the middle of a 400 μL column of Krebs-Hepes buffer and stored at −80° C. until measured. EPR spectra were obtained using an X-band EPR spectrometer (EMX Plus, Bruker, Germany), equipped with a rectangular resonator cavity H102. Signals were quantified by measuring the total amplitude of the NO—Fe(DETC)2 after correction of baseline. The quantitative results of NO production assessed by EPR were expressed in AU/mg of tissue.

[2] = test system: ApoE/LDLR−/− mice; assay: Example 3: MRI assessment of Ach response in BCA and LCA, older mice with advanced atherosclerosis; format: in vivo; conditions: low dose 0.03 mg/kg b.w/day, eight weeks, 24-week-old mice; listed as vitamin K2, 0.03 mg/kg/day
Description: In a second part of the study, the effects of a low dose (0.03 mg/kg b.w./day) as well as a high doses (10 mg/kg b.w./day) of vitamin K2 (MK-7) on endothelial function in ApoE/LDLR−/−mice with pre-established atherosclerosis were assessed.
Magnetic resonance imaging (MRI) experiments were performed using a 9.4T scanner (BioSpec 94/20 USR, Bruker, Germany) located in the Department of Magnetic Resonance Imaging, Institute of Nuclear Physics, Polish Academy of Sciences in Krakow. During the experiment, mice were anaesthetized using isoflurane (Aerrane, Baxter Sp. z o. o., Poland, 1.7 vol %) in an oxygen and air (1:2) mixture and imaged in the supine position. Activity of the heart, respiration, and body temperature (maintained at 37° C. using circulating warm water) were monitored using a Monitoring and Gating System (SA Inc., Stony Brook, N.Y., USA). […]
Vasomotor response was examined by comparing two time-resolved 3D images of the vessels prior to and 25 minutes after intraperitoneal Ach administration (Sigma-Aldrich, Poznan Poland: 50 μl, 16.6 mg/kg), as well as prior to and 5 minutes after vessel occlusion. […] End-diastolic volumes of vessels were analyzed using ImageJ software 1.46r (NIH Bethesda, Md., USA) and scripts written in Matlab (MathWorks, Natick, Mass., USA). […]

[3] = mouse, in vivo
[4] = test system: ApoE/LDLR−/− mice; assay: Example 3: histological assessment of area and composition of atherosclerotic plaque in BCA, older mice; format: in vivo; conditions: eight weeks; for decrease in vessel wall area (VWA): 24-week-old mice
Description: For the determination of atherosclerotic plaque area and composition isolated brachiocephalic artery (BCA) was dissected, fixed in 4% buffered formalin, and embedded in paraffin. 5 μm-thick serial sections of BCA were collected from the proximal to distal part of the artery. Staining with Unna's orcein combined with Martius, Scarlet and Blue trichrome (OMSB) was applied on every tenth section (50 μm interval between each section) for quantitative analysis of atherosclerotic plaques. The areas of particular components of atherosclerotic plaque as well as artery lumen and wall were determined after Columbus-based software processing (FIG. 9) using specially-designed algorithm as described in Gajda M, Jasztal A, Banasik T, Jasek-Gajda E, Chlopicki S. Combined orcein and martius scarlet blue (OMSB) staining for qualitative and quantitative analyses of atherosclerotic plaques in brachiocephalic arteries in apoE/LDLR−/− mice. Histochem Cell Biol 2017. doi:10.1007/s00418-017-1538-8. The parameters analyzed include vessel wall area (VWA), internal vessel area (IVA=plaque area+lumen area), plaque area (expressed as percent of internal wall area: plaque/IWA), and lumen area (expressed as percent of internal wall area: lumen/IWA).

[5] = test system: ApoE/LDLR−/− mice; assay: Example 3: nitrite and nitrate concentration in plasma, older mice; format: in vivo; conditions: eight weeks

CC(C)=CCC/C(C)=C/CC/C(C)=C/CC/C(C)=C/CC/C(C)=C/CC/C(C)=C/CC/C(C)=C/CC1=C(C)C(=O)c2ccccc2C1=O [MK-7, menaquinone-7]
nitric oxide production in ex vivo aorta measured by EPR [1]: increased | volume change of LCA after Ach injection [2]: ~−3% | K1 2,3-epoxide plasma concentration [3]: tent to decrease | vitamin K1 plasma concentration [3]: tent to decrease | concentration of MK4 2,3-epoxide in plasma ([3]; 5 mg/kg/day): maintained at similar level | plasma concentration of K2 (MK-7) ([3]; 5 mg/kg/day): dose-dependent increase | plasma concentration of MK-4 ([3]; 5 mg/kg/day): dose-dependent increase | lumen area expressed as percent of IWA ([4]; high dose 10 mg/kg b.w./day): did not change | plaque area expressed as percent of IWA ([4]; high dose 10 mg/kg b.w./day): did not change | plaque size compared with non-treated mice ([4]; high dose 10 mg/kg b.w./day): not different | decrease in vessel wall area (VWA) ([4]; high dose 10 mg/kg b.w./day): about 5% | lumen area expressed as percent of IWA ([4]; low dose 0.03 mg/kg b.w./day): did not change | plaque area expressed as percent of IWA ([4]; low dose 0.03 mg/kg b.w./day): did not change | plaque size compared with non-treated mice ([4]; low dose 0.03 mg/kg b.w./day): not different | decrease in vessel wall area (VWA) ([4]; low dose 0.03 mg/kg b.w./day): about 5% | internal wall area (IWA) ([4]; lower dose, data not shown, not visible for entire vessel): decreased only in the middle part of the vessel | concentration of NO3− in plasma ([5]; 0.03 mg/kg b.w./day): did not change significantly | concentration of NO3− in plasma ([5]; 10 mg/kg b.w./day): did not change significantly | increase in NO2− concentration in plasma ([5]; high dose 10 mg/kg b.w./day): ~42% | increase in NO2− concentration in plasma ([5]; low dose 0.03 mg/kg b.w./day): about 58%

From patent US11911349B2, “Rapidly improving vascular conditions by administering vitamin K” (NATTOPHARMA AS, priority 2018, dated 2024)
